US20230241226A1, “COMPOUNDS FOR TARGETED DEGRADATION OF CARRIER PROTEINS AND USES THEREOF” (CeMM - Forschungszentrum für Molekulare Medizin GmbH, priority 2019, published 2023)
Entries after “also recorded” stand apart in the source; their conditions may differ.

Experiments:
Strep/HA SLC9A2 = target: T1, Strep/HA SLC9A2 (Homo sapiens, UniProt Q9UBY0); test: Selectivity across SLC9 family: degradation of exogenous Strep/HA SLC9A2; assay type: cell-based; details: HAP1; 250 or 750 nM; 16 hours
T1 construct: expressed in transfected cells; host or cells: HAP1 (lentiviral, pRRL Strep-HA; cDNA synthesized by Genescript)
T1 sequence (Q9UBY0 whole entry): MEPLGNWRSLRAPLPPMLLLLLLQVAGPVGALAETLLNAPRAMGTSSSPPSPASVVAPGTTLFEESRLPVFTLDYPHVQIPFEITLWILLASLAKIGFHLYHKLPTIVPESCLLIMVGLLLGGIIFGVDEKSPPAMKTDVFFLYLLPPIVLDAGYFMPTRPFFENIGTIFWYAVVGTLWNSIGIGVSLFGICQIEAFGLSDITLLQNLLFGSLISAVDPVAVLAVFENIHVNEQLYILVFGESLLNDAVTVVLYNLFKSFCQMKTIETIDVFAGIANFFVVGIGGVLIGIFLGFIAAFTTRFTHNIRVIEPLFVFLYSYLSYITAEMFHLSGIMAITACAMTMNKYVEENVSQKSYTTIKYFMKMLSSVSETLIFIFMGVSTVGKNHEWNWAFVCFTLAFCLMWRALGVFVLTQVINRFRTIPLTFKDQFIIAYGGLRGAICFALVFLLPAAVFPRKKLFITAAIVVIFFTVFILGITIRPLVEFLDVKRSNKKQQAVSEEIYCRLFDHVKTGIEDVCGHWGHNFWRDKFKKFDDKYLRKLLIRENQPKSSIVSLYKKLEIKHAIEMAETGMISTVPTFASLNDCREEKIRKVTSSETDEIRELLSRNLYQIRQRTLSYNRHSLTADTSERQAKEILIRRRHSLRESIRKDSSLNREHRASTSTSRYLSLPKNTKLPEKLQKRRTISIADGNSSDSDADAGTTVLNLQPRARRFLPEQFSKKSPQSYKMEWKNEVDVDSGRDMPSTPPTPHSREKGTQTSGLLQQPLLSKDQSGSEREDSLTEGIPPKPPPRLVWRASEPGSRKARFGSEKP
Method: (E) Selectivity of d9A1-2 was tested across HAP1 cell lines expressing Strep/HASLC9A1, 9A4, 9A5, 9A8, 9A2, 9B2, 9A6, 9A9, and 9A3. Cells were treated with varying concentrations of d9A1-2 for 16 hours, after which degradation of the exogenous SLCs was monitored.
SLC1A5, SLC2A1, SLC2A3, SLC16A1, SLC38A1, SLC38A2 were obtained as gateway-compatible pENTR/pDONR vectors from the Harvard PlasmID Repository. SLC39A7 was obtained from Dharmacon, GE Healthcare. The following vectors were synthesized by Genescript: SLC4A4, SLC7A3, SLC38A9, SLC25A1, SLC9A1, SLC9A2, SLC9A3, SLC9A4, SLC9A5, SLC9A6, SLC9A7, SLC9A8, and SLC9B2. SLC30A9, SLC33A1, SLC35B2, SLC25A26, and MTCH2 were a gift from the RESOLUTE consortium. cDNAs were transferred into gateway-compatible lentiviral expression vectors: pLX305 dTAG vectors (Addgene #91797/8) or pRRL Strep-HA (described previously43, EF1a promotor driven expression) using LR recombination (ThermoFisher Scientific). […]
(§1) For immunoblotting, whole cell extracts were prepared using RIPA lysis buffer (25 mM Tris/HCl pH 7.6, 150 mM NaCl, 1% NP-40, 1% sodium deoxycholate, 0.1% SDS, EDTA-free protease inhibitor (Roche) and phosphatase inhibitors 2+3 (Sigma- Aldrich)). […] Protein extracts were quantified and normalized using the BCA assay (Thermo Scientific). […]

[1] = target: T2, dTAG-HA SLC38A2 (knock-in) (Homo sapiens, UniProt Q96QD8+Q96SW2); test: dTAG knock-in: degradation of endogenously tagged SLC38A2 induced by amino acid starvation; assay type: cell-based
T2 construct: SLC38A2 was selected for endogenous tagging at the N-terminus; endogenous in cells
T2 sequence (Q96SW2 whole entry): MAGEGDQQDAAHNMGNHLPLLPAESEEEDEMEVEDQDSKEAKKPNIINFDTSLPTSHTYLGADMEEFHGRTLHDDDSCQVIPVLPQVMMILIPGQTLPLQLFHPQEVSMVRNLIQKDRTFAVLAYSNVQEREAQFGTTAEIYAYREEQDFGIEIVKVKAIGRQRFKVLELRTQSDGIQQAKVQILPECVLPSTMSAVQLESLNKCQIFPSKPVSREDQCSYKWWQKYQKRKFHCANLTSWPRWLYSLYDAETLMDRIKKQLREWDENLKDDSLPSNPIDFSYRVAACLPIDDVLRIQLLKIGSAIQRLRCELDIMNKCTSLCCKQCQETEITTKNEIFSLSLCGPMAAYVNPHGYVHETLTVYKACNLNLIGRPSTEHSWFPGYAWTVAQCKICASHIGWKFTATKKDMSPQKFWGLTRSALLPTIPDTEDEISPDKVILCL
T2 sequence (Q16531 whole entry, further chain): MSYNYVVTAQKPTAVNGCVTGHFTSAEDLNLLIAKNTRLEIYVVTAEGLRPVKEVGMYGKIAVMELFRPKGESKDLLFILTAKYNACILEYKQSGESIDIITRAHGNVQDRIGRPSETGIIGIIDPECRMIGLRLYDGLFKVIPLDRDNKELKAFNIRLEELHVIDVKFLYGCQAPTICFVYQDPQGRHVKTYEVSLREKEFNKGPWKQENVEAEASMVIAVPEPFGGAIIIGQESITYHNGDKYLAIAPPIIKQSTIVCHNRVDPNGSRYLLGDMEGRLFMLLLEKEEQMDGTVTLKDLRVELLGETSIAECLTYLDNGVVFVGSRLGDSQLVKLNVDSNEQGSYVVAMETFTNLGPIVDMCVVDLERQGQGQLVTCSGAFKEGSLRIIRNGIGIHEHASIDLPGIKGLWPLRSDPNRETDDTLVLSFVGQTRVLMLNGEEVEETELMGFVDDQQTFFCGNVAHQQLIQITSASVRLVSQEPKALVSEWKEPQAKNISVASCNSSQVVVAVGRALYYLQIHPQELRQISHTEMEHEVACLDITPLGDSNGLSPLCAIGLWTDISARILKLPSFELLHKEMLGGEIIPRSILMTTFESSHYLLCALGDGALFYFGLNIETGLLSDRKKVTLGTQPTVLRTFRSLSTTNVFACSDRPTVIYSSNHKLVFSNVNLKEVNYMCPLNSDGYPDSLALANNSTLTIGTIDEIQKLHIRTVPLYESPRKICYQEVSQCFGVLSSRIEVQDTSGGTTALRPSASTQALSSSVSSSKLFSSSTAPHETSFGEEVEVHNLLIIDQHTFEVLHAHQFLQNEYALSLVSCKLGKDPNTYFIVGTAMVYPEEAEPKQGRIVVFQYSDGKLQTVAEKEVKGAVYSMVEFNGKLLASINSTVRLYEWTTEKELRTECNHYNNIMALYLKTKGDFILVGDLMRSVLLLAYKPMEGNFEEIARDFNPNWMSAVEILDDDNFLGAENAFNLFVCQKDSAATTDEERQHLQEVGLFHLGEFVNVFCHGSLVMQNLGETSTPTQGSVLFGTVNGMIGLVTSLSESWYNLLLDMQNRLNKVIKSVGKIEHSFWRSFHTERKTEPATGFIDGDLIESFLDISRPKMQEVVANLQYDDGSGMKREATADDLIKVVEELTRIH
T2 sequence (Q96QD8 other isoform, or with tags, fused parts or gaps): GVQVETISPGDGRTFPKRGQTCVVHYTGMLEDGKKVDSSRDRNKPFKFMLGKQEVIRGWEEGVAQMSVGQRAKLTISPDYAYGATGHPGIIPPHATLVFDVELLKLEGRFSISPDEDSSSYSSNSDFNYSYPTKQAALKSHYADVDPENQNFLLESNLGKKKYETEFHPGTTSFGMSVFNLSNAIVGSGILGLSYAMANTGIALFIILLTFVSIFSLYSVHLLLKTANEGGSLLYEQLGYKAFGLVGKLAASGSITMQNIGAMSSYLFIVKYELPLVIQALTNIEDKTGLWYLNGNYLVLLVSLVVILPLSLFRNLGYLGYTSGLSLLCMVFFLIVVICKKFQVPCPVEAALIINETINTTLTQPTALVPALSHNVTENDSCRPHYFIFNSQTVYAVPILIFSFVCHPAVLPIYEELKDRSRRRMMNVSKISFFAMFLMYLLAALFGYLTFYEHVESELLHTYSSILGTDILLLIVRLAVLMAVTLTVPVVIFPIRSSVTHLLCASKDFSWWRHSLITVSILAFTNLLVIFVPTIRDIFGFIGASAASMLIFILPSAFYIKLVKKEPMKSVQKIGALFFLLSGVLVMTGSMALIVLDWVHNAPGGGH
From the text: (A) dTAG knock-in: SLC38A2 was tagged at N-terminus with dTAG-HA. Blasticidn was used as the selection marker. Single cell clones were derived and characterized as previously described. Two representative clones, B7 and C9 are presented here.
(B) The expression of dTAG-HA SLC38A2 was induced by replacing the normal culture media with media deprived of amino acids and FBS. Expression of the endogenous SLC is induced rapidly and was monitored by immunofluorescence imaging and quantified by automated image analysis. Representative images are shown.
(C)The effect of amino acid starvation on dTAG-HA SLC38A2 expression in HAP1 cells. Cells were treated with 0.5 µM dTAG13 and/or media lacking amino acids/FBS for either 6 or 10 hours, after which expression and degradation were monitored via western blot.
(D) Immunofluorescence imaging of two different HAP1 clones expressing dTAG-HA SLC38A2. Cells were incubated in media lacking amino acids/FBS for 8 hours and treated with 0.5 µM dTAG13 for either 8 or 10 hours. Expression of the endogenous SLC is induced rapidly and was monitored by immunofluorescence and quantified by automated image analysis. Representative images are presented.
HEK293T, LS180 were obtained from ATCC (Manassas, VA, USA), HAP1 WT, HAP1 -/-SLC38A2 (HZGHC001975c003), HAP1 -/-SLC38A9 (HZGHC000777c011) were obtained from Horizon Genomics. […]
as §1

Row | Structure (SMILES) | degradation of exogenous SLC9A2 (Strep/HA SLC9A2) | degradation of knock-in dTAG-HA SLC38A2 (western blot) ([1]; HAP1, 0.5 µM cotreatment with media lacking amino acids/FBS, 6 or 10 hours) | SLC38A2 expression after pre-treatment (immunofluorescence, automated image analysis) ([1]; HAP1 knock-in clones, 0.5 µM, 2 hours pre-treatment, 8 hours starvation) | reduction of SLC38A2 expression by co-treatment ([1]; HAP1 knock-in clones, 0.5 µM, co-treatment with starvation 8 hours)
1 | Cc1cc(-c2ccc(C(=O)NCCOCCOCCOCCOCCNc3cccc4c3C(=O)N(C3CCC(=O)NC3=O)C4=O)cc2N2CCC(c3[nH]cnc3C)CC2)ccc1F (stereo not shown) [d9A1-2] | prompted degradation |  |  | 
2 | CC[C@H](C(=O)N1CCCC[C@H]1C(=O)O[C@H](CCc1ccc(OC)c(OC)c1)c1ccccc1OCC(=O)NCCCCCCOc1cccc2c1C(=O)N(C1CCC(=O)NC1=O)C2=O)c1cc(OC)c(OC)c(OC)c1 (stereo partly shown) [dTAG13] |  | Near complete degradation | completely abrogate any SLC expression; also recorded: completely ablated | more than 50%
